Reference: paper PMC11362529, “Exploring the neuroprotective potential of Nrf2-pathway activators against annonacin toxicity” (Scientific Reports, 2024)

How the values were obtained:
Format in all cases: cell-based, human
[1] = tested on: LUHMES cells; assay: Neurite arborization analysis (Tuj-1 immunofluorescence); details: 48 h
Protocol: Cells were seeded in differentiation medium, onto 24-well microplates containing PLO/FN coated 13 mm Ø coverslips, and submitted to the described pharmacological treatments for 48 h. After this period, the medium was removed and cells were washed once with warm HBSS, and fixed with 4% PFA (paraformaldehyde) in PBS, for 20 min at RT (room temperature). After fixation, cells were washed twice with PBS and permeabilized with 0.1% Triton™ X-100 in PBS, for 20 min at RT. Next, cells were blocked in 1.5% NHS (normal horse serum) in PBS, for 1 h at RT, and incubated overnight with 1:1,000 Tuj-1 Alex 549-conjugated antibody (#801208, BioLegend, San Diego, CA, USA) in 1.5% NHS in PBS. After washing three times with PBS, cell nuclei were stained with 1:5,000 DAPI (4ʹ,6-diamidino-2-phenylindole, Thermo Fisher Scientific) in PBS, for 15 min at RT. The coverslips were mounted in mowiol, and left to dry for 24 h before imaging. Ten to fifteen images per condition, across triplicates, from different fields of view were taken on a fluorescence microscope Leica-DFC9000GTC (Leica) with 200 × magnification (20 × objective, 10 × intermediate magnification). Identical acquisition parameters were used for all images. Neurites density and arborization were quantified on TIFF exported images using the “neurite analyzer” plugin described before. The average value of the different view fields per experimental condition was taken and reported as fold change compared to the control (DMSO-treated) condition.

[2] = tested on: pThr-181 tau; assay: AT270 (pThr-181 tau) immunofluorescence; details: 48 h
Protocol: For immunostaining, cells were seeded in differentiation medium, on 24-well microplates containing PLO/FN-coated 13 mm Ø coverslips, and treated for 48 h as previously described. On the readout day, the medium was removed and cells were fixed, permeabilized and blocked as before. Primary antibody dilutions were made in 1.5% NHS in PBS (Supplementary Table S1) and incubated overnight at 4 °C. On the following day, the coverslips were washed three times with PBS and incubated with host-specific fluorescence secondary antibodies (Supplementary Table S1), for 2 h at RT, protected from light. After another three washes with PBS, cell nuclei were stained with 1:5,000 DAPI (4’,6-diamidino-2-phenylindole, Thermo Fisher Scientific) in PBS, for 15 min at RT. The coverslips were mounted in mowiol and left to dry for 24 h before imaging. Image acquisition for FI quantification was done with a 200 × magnification (20 × objective, 10 × intermediate magnification), or 400x (40 × objective, 10 × intermediate magnification) in the case of pSC-35 and AT8 immunostaining, on a fluorescence microscope Leica-DFC9000GTC (Leica). In the case of phospho-tau AT8, Z-stacks consisting of 18 plane images with a step size of 1 μm were acquired. The image acquisition parameters were identical for all conditions. Quantification of 8-OHdG (8-hydroxyguanosine) FI and tau species was performed using the ImageJ software. Ten-to-fifteen images per condition across triplicates, from different view fields, were used for this purpose. Briefly, TIFF exported images were submitted to background subtraction using the rolling ball method with a radius of 50 pixels. For 8-OHdG analysis, a channel-specific threshold was applied to all images to define the ROI and FI was measured and normalized to the cell number, determined by the DAPI channel. The average value of the different view fields per experimental condition was taken and reported as fold change compared to the control (DMSO-treated) condition. For the analysis of phospho-tau AT270 and pan-tau reactivity, channel specific thresholds were applied to all images. The DAPI channel was used to define nuclei from viable cells, by selecting particles with a size above 15 µm^2 and a circularity of 0.3–1.0. The obtained mask was submitted to “close” and “fill holes” processes to smooth the objects and fill in small holes, followed by nine “dilations” and one “watershed” to obtain a ROI covering exclusively the soma of viable cells. The obtained mask was combined with threshold images of phospho-tau AT270 and pan-tau in order to define the respective ROI of each tau species. These masks were used to quantify the number of somas expressing each of these tau species, as well as the respective FI. The number of AT270-positive somas was divided by the number of pan-tau-positive somas and expressed as a percentage. The AT270 FI was normalized to the pan-tau FI and the ratio presented as fold change relative to the control (DMSO-treated) condition. For quantification of pSC-35 and AT8 speckle number and FI, we used CellProfiler™ 4 (https://cellprofiler.org/, Broad Institute Inc., Cambridge, MA, USA) speckle counting pipeline. Twenty-to-thirty images per condition across triplicates were used for this purpose. ImageJ BIOP JACoP plugin was used for estimating co-localization of AT8 with DAPI-stained nuclei. Data were reported as fold change compared to the control (DMSO-treated) condition, or as Pearsonʹs coefficient values in case the of AT8 co-localization data.

[3] = tested on: LUHMES cells; assay: Mitochondrial activity by MTT reduction; details: 24 h; for MTT reduction: protective concentration of compound + 20 nM annonacin
Protocol: Mitochondrial activity was estimated by the reduction of MTT (3-(4,5-dimethylthiazol-2-yl)-2,5-diphenyltetrazolium, Sigma-Aldrich). Briefly, LUHMES cells were seeded on PLO/FN-coated 48-well microplates, in triplicates. After a 24 h treatment with 20 nM of annonacin and the protective concentrations of Nrf2-pathway activators in glucose-reduced medium, cells were incubated with 0.5 mg/ml of MTT dissolved in PBS, at 37 °C for 30 min. After that, the medium was removed and the plate was frozen at -80 °C for 1 h, for cell lysing. Next, the plate was thawed and the MTT crystals were completely dissolved in 250 µl of DMSO with vigorous shaking. The absorbance was measured on a FLUOstar® Omega plate reader at λ = 590 nm, using λ = 630 nm absorbance as a background correction. The obtained results were analyzed with the MARS data analysis software (BMG LabTech). After background subtraction, the data were expressed as a percentage of MTT reduction relative to the control (DMSO-treated) condition. Determination of cellular ATP levels was done by using the ViaLight™ plus kit (Lonza, Basel, Switzerland), following the manufacturer’s instructions. Cells were seeded on PLO/FN-coated 48-well microplates and the pharmacological treatments were done similarly as to the assessment of the MTT reduction. On the next day, the medium was removed and cells were washed once with warm HBSS and rested in 210 µl HBSS. The plate was left to reach RT before adding 70 µl cell lysis reagent to each well, provided by the kit. […] The plate was incubated in the dark for 10 min at RT before the luminescence signal was measured on a FLUOstar® Omega plate reader. The obtained results were analyzed with the MARS data analysis software (BMG LabTech) and expressed as RLUs. For background correction, the RLUs detected for the background control (i.e., 10 µl of ATP monitoring reagent plus combined with 10 µl of cell lysis reagent) were subtracted from the measured RLUs values of all testing conditions.

[4] = protective concentration of compound + 20 nM annonacin
[5] = protective concentration of compound + 20 nM annonacin, vs annonacin

| Compound | number of quadruple points [1, 4] | total branch length [1, 4] | pThr-181 tau (AT270) normalized to pan-tau, neuritic and somatic compartment [2, 5] | number of quadruple points ([1]; 20 nM annonacin alone) | total branch length ([1]; 20 nM annonacin alone) | decrease of reduced-MTT compared with healthy control cells ([3]; 20 nM annonacin alone) | AT270-positive somas ([2]; 20 nM annonacin alone) | AT270 reactivity normalized to pan-tau, in the soma area ([2]; 20 nM annonacin alone) | pThr-181 tau (AT270) normalized to pan-tau, neuritic and somatic compartment ([2]; 20 nM annonacin alone) | MTT reduction [3] | AT270-positive somas ([2]; 15 μM ezetimibe + 20 nM annonacin) |
| --- | --- | --- | --- | --- | --- | --- | --- | --- | --- | --- | --- |
| Cn1c(Nc2nc3ccc(C(F)(F)F)cc3s2)nc2cc(C(=O)NCCOCCO)ccc21 [HPP-D] | approximately 0.50 fold over control | significantly denser neural arborizations compared with the annonacin condition | attenuated annonacin-induced tau hyperphosphorylation |  |  |  |  |  |  |  |  |
| CCCCCCCCCCCC[C@@H](O)[C@H]1CC[C@H]([C@H](O)CCCC[C@H](O)CCCCC[C@@H](O)CC2=CC(C)OC2=O)O1 (stereo partly drawn) [annonacin] |  |  |  | 0.31 fold over control | 0.44 fold over control | 20% | more than 90% | 1.9 ratio | 3.4 ratio |  |  |
| O=C1[C@H](CC[C@H](O)c2ccc(F)cc2)[C@@H](c2ccc(O)cc2)N1c1ccc(F)cc1 [ezetimibe] | 0.71 fold over control | significantly denser neural arborizations compared with the annonacin condition | attenuated annonacin-induced tau hyperphosphorylation |  |  |  |  |  |  | further decreased the amount of MTT reduction | 75% |
| C=CC(C)(C)c1cc(/C=C/C(=O)c2ccc(O)cc2)c(OC)cc1O [licochalcone A] | 0.81 fold over control | significantly denser neural arborizations compared with the annonacin condition | attenuated annonacin-induced tau hyperphosphorylation |  |  |  |  |  |  | further decreased the amount of MTT reduction |  |
